Here are results for 2 compounds from US20240315992A1, “AMINOXY ACID-BASED ANTIBACTERIAL COMPOUNDS AND METHODS THEREOF” (The University of Hong Kong, priority 2023, published 2024).

One data set has as its system NIH3T3 cells. The data set can be described thus: Mammalian cell cytotoxicity assay (MTT), NIH3T3. The class given is cell-based. As to conditions: for IC50: Mus musculus, NIH3T3, MTT assay, 24 hours, read-out: IC50, toxicity towards mammalian cells NIH3T3; for toxicity against mammalian cell NIH3T3: at 16 folded MIC (50 μM compound 8, 12.5 μM compound 35). As to the method:
NIH3T3 cells were cultured in DMEM supplemented with 10% fetal bovine serum (FBS), 100 U/ml penicillin and 0.1 mg/ml streptomycin. Cells were grown in treated culture flasks at 37° C. in a 5% CO2 humidified incubator and passaged every 2-3 days.
(§1) In the treated culture dish, cells were washed by PBS and then trypsinized. DMEM was added to quench the reaction. Cells were centrifuged and resuspended into fresh DMEM. Cells were then seeded in 96-well microtitre plate (100 μL, 5000 cells per well) for 24 hours before addition of compounds. The compounds were two-fold serial diluted by DMSO in a DMSO-compatible 96-well plate. 1 μL of compound in DMSO is transferred into the 96-well microtitre preparation plate containing 100 μL DMEM medium. The medium in culture plate was removed and compounds in preparation plate were transferred to culture plate. Equal volume of DMSO was used as negative control.
(§2) After 24 hours of incubation of cells, cell viability was measured by MTT assay. In MTT assay, 20 μL 5 mg/mL MTT solution in PBS was added to cell medium and cultured for 3 hours. The medium was then removed and 50 μL DMSO was added and cultured for 10 minutes. Absorbance at 595 nm was measured spectrophotometrically (Beckman Coulter DTX 880 Multimode Detector) and normalized to DMSO group. Biological replicates were performed.

The subject of a further data set is MSSA ATCC 35556. The data set can be described thus: MIC by CLSI broth micro-dilution, MSSA ATCC 35556. Format: cell-based. As to conditions: Staphylococcus aureus, read-out: Minimum inhibitory concentration. As to the method: (§3) Aminoxy acids were synthesized by the standard peptide coupling procedures. Minimum inhibitory concentration was determined using CLSI broth micro-dilution method in 96-wells microtitre plates. Minimum inhibitory concentration is defined as the lowest concentration of the compound that inhibits visible growth of the bacteria. All experiments were performed three times. 24 compounds including aminoxy acid monomers and dipeptides have been identified to show toxicity against multidrug resistant Staphylococcus aureus Mu3 and summarized in Table 1. The minimum inhibitory concentration of compound 8 and compound 35 on other gram-positive bacteria was also evaluated and summarized in Table 2. […] As shown in FIGS. 3A-3B there are no observable hemolysis for compound 8 and compound 35 towards human red blood cell.
(§4) Bacteria were streaked from the glycerol stock into BHI agar and were incubated overnight. Single colony was picked for the overnight culture in cation-adjusted Mueller Hinton broth (CAMH), LB or BHI. The overnight culture was sub-cultured and regrew to exponential phase for the experiment.
MIC was determined by CLSI broth micro-dilution method in 96-wells microtitre plates. […] Optical density was recorded by DTX 880 multimode detector (Beckman Coulter, California, US). […]

Data set [1] deals with Staphylococcus aureus ATCC 29213 persister. The data set can be described thus: Killing of Staphylococcus aureus persister. The following applies: 10×MIC, persisters enriched with ciprofloxacin. The class given is cell-based. The text has this:
FIG. 4 is a line graph showing the killing kinetics of the compound 8 and compound 35 towards Staphylococcus aureus persister compared to the conventional antibiotics. […] Data were representative of 3 independent experiments±S.D.
Persisters are the phenotypic variants of the normal bacteria with reduced metabolism. They highly tolerate to the conventional […]. Persisters was enriched by the addition of 100-fold minimum inhibitory concentration of bactericidal antibiotics ciprofloxacin to the stationary phase bacteria. After 24 hours' culture, ciprofloxacin was removed. Persisters were treated with compound 8, compound 35 or different conventional antibiotics.
S. aureus ATCC 29213 cells were sub-cultured from an overnight culture in CAMH 1:100 for 24 hours at 37° C. with 250 rpm shaking speed. Persisters were prepared by addition of ciprofloxacin hydrochloride (25 μg/mL, 100×MIC in Staphylococcus aureus ATCC 29213) and cultured for 24 hours at 37° C. with 250 rpm shaking speed. Persisters were washed by PBS (12,000×g, 3 minutes) and resuspended in PBS+1% CAMH medium (same volume as original culture). 1 mL portions were aliquoted into fresh culture tubes, and different antibiotics or DMSO (1% maximum concentration) were added, followed by incubation at 37° C. with 250 rpm shaking speed. […]

The subject of data set [2] is multidrug resistant Staphylococcus aureus Mu3. The data set can be described thus: MIC by CLSI broth micro-dilution, MRSA Mu3. The class given is cell-based. As to the method:
as §3, §4
MIC was determined by CLSI broth micro-dilution method in 96-wells microtitre plates. For compounds dissolved in water, 100 μL of 2× testing concentration was added to the first well of each column, followed by two-fold serial dilution for successive wells with 50 μL medium. For chemical compounds dissolved in DMSO, the compounds were two-fold serial diluted by DMSO in a DMSO-compatible 96-well plate. 1 μL of compound in DMSO was transferred into 96-wells microtitre plate containing 50 μL medium to give 2× testing concentration. An overnight culture of bacteria was grown into exponential phase. The bacteria culture was diluted to 1×10^6 CFU/mL and 50 μL of diluted culture were added into each well. The test plates were kept in a 37° C. incubator overnight. Optical density was recorded by DTX 880 multimode detector (Beckman Coulter, California, US). MIC is defined as the lowest concentration of the compound that inhibits visible growth of bacteria. Biological replicates were performed. CAMH was used for bacteria culture and MIC test except S. pneumoniae, L. monocytogenes, E. faecalis and M. smegmatis for which BHI was used as culture medium
(In broth dilution the organism is exposed to a series of concentrations in liquid medium.)

The test system of another data set is MDCK. Nature of the data set: Mammalian cell cytotoxicity assay (MTT), MDCK. The class given is cell-based. As to conditions: at 16 folded MIC (50 μM compound 8, 12.5 μM compound 35). As to the method:
FIGS. 2A-2B are the bar graphs showing the cytotoxicity of compound 8 (FIG. 2A) and compound 35 (FIG. 2B) towards mammalian cell NIH3T3, MDCK and MIHA. % survival is mean±S.D normalized to DMSO as the negative control of a representative experiment. Biological triplicates were conducted.
as §1, §2

For data set [3], the system named is Staphylococcus aureus strain USA300-LAC. The data set can be described thus: Lethal bacteremia infection model, survival. Format: in vivo, Balb/c mice. The following applies: 10 mg/kg/day intraperitoneal, twice per day, 7 days. On the procedure:
FIG. 8 is a line graph showing compound 8 and compound 35 rescue mice from Staphylococcus aureus bacteremia infection model. Statistical analysis was performed with a log rank test (Mantel Cox test). (*p<0.05).
Staphylococcus aureus strain USA300-LAC were cultured to the early exponential phase of growth, washed twice with sterile phosphate-buffered saline solution (PBS), and resuspended in PBS at 3×10^7 CFU/200 μL for lethal bacteremia model. The female Balb/c mice, 6-8 weeks, were infected intravenously (i.v.) through the tail vein with Staphylococcus aureus and randomized into three groups (N=11 for vehicle; N=12 for compound 8 and compound 35 respectively). Six hour after infection, mice received intraperitoneal injections of compound 8 or compound 35 (10 mg/kg/day) or an injection of buffer (PBS with 2.5% DMSO and 2% Tween-80) as the control. The compound and injection buffer treatments were performed twice per day at 12-h intervals. The challenged mice were monitored for 7 days, at which point all the remaining mice were sacrificed. Statistical analysis was performed with a log rank test (Mantel Cox test). (*p<0.05).

Where [4] appears, read: MRSA Mu3 (Table 2), read-out: Minimum inhibitory concentration.
[5] abbreviates: MRSA, CLSI broth micro-dilution, CAMH, read-out: Minimum inhibitory concentration (μM) in MRSA Mu3.

≈ marks a conversion by molar mass, not a printed value. Read-outs that look alike come from different tables or passages of the source. Where only a bound is given, the exact number is not on record here.

By IC50 is commonly meant the concentration that gives 50% inhibition.

For `CC(C)C[C@H](ONC(=O)[C@@H](COCc1ccccc1)ONC(=O)c1cc(C(F)(F)F)cc(C(F)(F)F)c1)C(=O)Nc1ccccc1` [Compound 8], in the data set with NIH3T3 cells, the IC50 was more than 50 µM. In addition, the “toxicity against mammalian cell NIH3T3” value in the data set with NIH3T3 cells is “minimal toxicity”. Besides, the MIC (in the data set on MSSA ATCC 35556; in data set [2] (setting [4]); in data set [2] (setting [5])) was 3.13 µM (≈ 2.05 µg/mL) each time. For the same compound, in data set [1], the “bactericidal effect on Staphylococcus aureus persister” value is given as “can eradicate the Staphylococcus aureus persister”. Besides, the “toxicity against mammalian cell MDCK” value in the data set with MDCK is given as “minimal toxicity”. Moreover, the “rescue of mice from bacteremia infection (survival)” value in data set [3] is recorded as “can rescue mice”.
As for `CC(C)C[C@H](ONC(=O)[C@@H](COCc1ccccc1)ONC(=O)c1cc(C(F)(F)F)cc(C(F)(F)F)c1)C(=O)Nc1ccc2c(c1)OC(F)(F)O2` [Compound 35], in the data set with NIH3T3 cells, the IC50 is more than 50 µM. Further, the “toxicity against mammalian cell NIH3T3” value in the data set on NIH3T3 cells is listed as “minimal toxicity”. The MIC was 0.78 µM (≈ 0.574 µg/mL) in the data set on MSSA ATCC 35556, 0.78 µM (≈ 0.574 µg/mL) in data set [2] (setting [4]) and 0.781 µM (≈ 0.574 µg/mL) in data set [2] (setting [5]). Besides, the “bactericidal effect on Staphylococcus aureus persister” value in data set [1] is “can eradicate the Staphylococcus aureus persister”. For the same compound, the “toxicity against mammalian cell MDCK” value in the data set on MDCK is “minimal toxicity”. For the same compound, the “rescue of mice from bacteremia infection (survival)” value in data set [3] is reported as “can rescue mice”.
